Bounds are passed on as bounds.

WRN [UniPro: Q14191 (WRN_HUMAN), N500-C946], sequence (Q14191 500-946): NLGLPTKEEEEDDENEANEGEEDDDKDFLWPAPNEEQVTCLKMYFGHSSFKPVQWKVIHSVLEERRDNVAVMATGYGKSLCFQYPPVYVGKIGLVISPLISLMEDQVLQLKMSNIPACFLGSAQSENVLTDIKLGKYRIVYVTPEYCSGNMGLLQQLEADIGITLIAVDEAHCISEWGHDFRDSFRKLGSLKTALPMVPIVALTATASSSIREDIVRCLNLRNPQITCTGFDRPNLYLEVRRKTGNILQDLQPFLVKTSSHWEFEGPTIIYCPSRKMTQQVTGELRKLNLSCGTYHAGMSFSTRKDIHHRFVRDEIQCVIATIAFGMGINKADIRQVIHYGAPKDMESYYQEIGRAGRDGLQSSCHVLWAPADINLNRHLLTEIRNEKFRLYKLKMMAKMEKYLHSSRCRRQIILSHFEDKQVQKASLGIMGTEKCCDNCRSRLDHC

The experiment concerns the target WRN [UniPro: Q14191 (WRN_HUMAN), N500-C946] (Homo sapiens (Human), UniProt Q14191). Description: WRN unwinding assay (FORKF DNA, fluorescence). The following applies: Table 14. It counts as biochemical. Here is the method:
WRN unwinding assay was initiated to evaluate potential inhibitory effect of compounds for WEN helicase activity. WRN [UniPro: Q14191 (WRN_HUMAN), N500-C946] was expressed and purified in insect system and stored at −80° C. in aliquots. […] Compounds dissolved in DMSO (Sigma, D8418) were plated into a 96-well intermediate plate (BioFil, VWP-032-096) for 3-fold serial titration for 10 points using DMSO, and well-to-well transfer the titrated compounds into another 96-well intermediate plate including assay buffer in advance. Shake the 96-well intermediate plate at 600 rpm for 10 min. to fully mix. Specifically, a 3× working mixture of WRN was diluted to a concentration of 60 nM in assay buffer. […] After centrifuging at 1000 rpm and shaking at 500 rpm, the assay plate was pre-incubated for 30 min. Then, […] 3×FORKF DNA and ATP working mixture was dispensed into assay plate. Plate was sealed, centrifuged and incubated for an additional 40 min. at 25° C. […] Each concentration of compound was tested in duplicates in the assay plate. Average fluorescence signal of high control (Wells with 1% DMSO) was calculated as High Control (HC). Average fluorescence signal of low control (Wells with no WRN protein) was calculated as Low control (LC).
IC50 values were determined by fitting the data to the standard 4 parameters with Hill Slope using GraphPad Prism software.
`CCc1c(N2CCN(C(=O)N(C)C)CC2)c(=O)n2nc(C3=CCOCC3)nc2n1CC(=O)Nc1ccc(C(F)(F)F)cc1Cl` [Example 10, 4-(4-(2-((2-Chloro-4-(trifluoromethyl)phenyl)amino)-2-oxoethyl)-2-(3,6-dihydro-2H-pyran-4-yl)-5-ethyl-7-oxo-4,7-dihydro-[1,2,4]triazolo[1,5-a]pyrimidin-6-yl)-N,N-dimethylpiperazine-1-carboxamide] displayed an IC50 of over 1000 nM.
Molecule `CCc1c(N2CCN(C(=O)C(C)O)CC2)c(=O)n2nc(C3=CCOCC3)nc2n1CC(=O)Nc1ccc(C(F)(F)F)cc1Cl` (stereo not shown) [Example 12, N-(2-Chloro-4-(trifluoromethyl)phenyl)-2-(2-(3,6-dihydro-2H-pyran-4-yl)-5-ethyl-6-(4-(2-hydroxypropanoyl)piperazin-1-yl)-7-oxo-[1,2,4]triazolo[1,5-a]pyrimidin-4(7H)-yl)acetamide] yielded an IC50 of 100 to 1000 nM.
For `CCc1c(N2CCN(C(=O)C3CC3)CC2)c(=O)n2nc(C3=CCOCC3)nc2n1CC(=O)Nc1ccc(C(F)(F)F)cc1Cl` [Example 13, N-(2-Chloro-4-(trifluoromethyl)phenyl)-2-(6-(4-(cyclopropanecarbonyl)piperazin-1-yl)-2-(3,6-dihydro-2H-pyran-4-yl)-5-ethyl-7-oxo-[1,2,4]triazolo[1,5-a]pyrimidin-4(7H)-yl)acetamide], the IC50 lay in the range of 100 to 1000 nM.
Consider `CCNC(=O)N1CCN(c2c(CC)n(CC(=O)Nc3ccc(C(F)(F)F)cc3Cl)c3nc(C4=CCOCC4)nn3c2=O)CC1` [Example 15, 4-(4-(2-((2-Chloro-4-(trifluoromethyl)phenyl)amino)-2-oxoethyl)-2-(3,6-dihydro-2H-pyran-4-yl)-5-ethyl-7-oxo-4,7-dihydro-[1,2,4]triazolo[1,5-a]pyrimidin-6-yl)-N-ethylpiperazine-1-carboxamide], for which the IC50 lay in the range of 100 to 1000 nM.
In turn, `CCc1c(N2CCN(C(=O)CCO)CC2)c(=O)n2nc(C3=CCOCC3)nc2n1CC(=O)Nc1ccc(C(F)(F)F)cc1Cl` [Example 16, N-(2-Chloro-4-(trifluoromethyl)phenyl)-2-(2-(3,6-dihydro-2H-pyran-4-yl)-5-ethyl-6-(4-(3-hydroxypropanoyl)piperazin-1-yl)-7-oxo-[1,2,4]triazolo[1,5-a]pyrimidin-4(7H)-yl)acetamide] showed an IC50 of 100 to 1000 nM.
In the case of `CCc1c(N2CCN(/C(=N\O)c3ncccc3F)CC2)c(=O)n2nc(C3=CCOCC3)nc2n1CC(=O)Nc1ccc(C(F)(F)F)cc1Cl` [Example 21, (Z)—N-(2-Chloro-4-(trifluoromethyl)phenyl)-2-(2-(3,6-dihydro-2H-pyran-4-yl)-5-ethyl-6-(4-((3-fluoropyridin-2-yl) (hydroxyimino)methyl)piperazin-1-yl)-7-oxo-[1,2,4]triazolo[1,5-a]pyrimidin-4(7H)-yl)acetamide], the IC50 is over 1000 nM.
Molecule `CCc1c(N2CCN(C(=O)NCC3CC3)CC2)c(=O)n2nc(C3=CCOCC3)nc2n1CC(=O)Nc1ccc(C(F)(F)F)cc1Cl` [Example 24, 4-(4-(2-((2-Chloro-4-(trifluoromethyl)phenyl)amino)-2-oxoethyl)-2-(3,6-dihydro-2H-pyran-4-yl)-5-ethyl-7-oxo-4,7-dihydro-[1,2,4]triazolo[1,5-a]pyrimidin-6-yl)-N-(cyclopropylmethyl)piperazine-1-carboxamide] gave an IC50 of 100 to 1000 nM.
In turn, `CCc1c(N2CCN(C(=O)Nc3c(C(F)(F)F)ncn3Cc3ccc(OC)cc3)CC2)c(=O)n2nc(C3=CCOCC3)nc2n1CC(=O)Nc1ccc(C(F)(F)F)cc1Cl` [Example 26, 4-(4-(2-((2-Chloro-4-(trifluoromethyl)phenyl)amino)-2-oxoethyl)-2-(3,6-dihydro-2H-pyran-4-yl)-5-ethyl-7-oxo-4,7-dihydro-[1,2,4]triazolo[1,5-a]pyrimidin-6-yl)-N-(1-(4-methoxybenzyl)-4-(trifluoromethyl)-1H-imidazol-5-yl)piperazine-1-carboxamide] registered an IC50 of over 1000 nM.
The molecule `CCNS(=O)(=O)N1CCN(c2c(CC)n(CC(=O)Nc3ccc(C(F)(F)F)cc3Cl)c3nc(C4=CCOCC4)nn3c2=O)CC1` [Example 33, N-(2-Chloro-4-(trifluoromethyl)phenyl)-2-(2-(3,6-dihydro-2H-pyran-4-yl)-5-ethyl-6-(4-(N-ethylsulfamoyl)piperazin-1-yl)-7-oxo-[1,2,4]triazolo[1,5-a]pyrimidin-4(7H)-yl)acetamide] registered an IC50 of 100 to 1000 nM.
In turn, `CCc1c(N2CCN(C(=O)NS(=O)(=O)C3CC3)CC2)c(=O)n2nc(C3=CCOCC3)nc2n1CC(=O)Nc1ccc(C(F)(F)F)cc1Cl` [Example 34, 4-(4-(2-((2-Chloro-4-(trifluoromethyl)phenyl)amino)-2-oxoethyl)-2-(3,6-dihydro-2H-pyran-4-yl)-5-ethyl-7-oxo-4,7-dihydro-[1,2,4]triazolo[1,5-a]pyrimidin-6-yl)-N-(cyclopropylsulfonyl)piperazine-1-carboxamide] gave an IC50 of 100 to 1000 nM.
`CCc1c(N2CCN(C(=O)CN)CC2)c(=O)n2nc(C3=CCOCC3)nc2n1CC(=O)Nc1ccc(C(F)(F)F)cc1Cl` [Example 38, N-(2-Chloro-4-(trifluoromethyl)phenyl)-2-(2-(3,6-dihydro-2H-pyran-4-yl)-5-ethyl-6-(4-glycylpiperazin-1-yl)-7-oxo-[1,2,4]triazolo[1,5-a]pyrimidin-4(7H)-yl)acetamide] gave an IC50 of 100 to 1000 nM.
Under `CCc1c(N2CCN(C(=O)CNS(=O)(=O)CC)CC2)c(=O)n2nc(C3=CCOCC3)nc2n1CC(=O)Nc1ccc(C(F)(F)F)cc1Cl` [Example 39, N-(2-Chloro-4-(trifluoromethyl)phenyl)-2-(2-(3,6-dihydro-2H-pyran-4-yl)-5-ethyl-6-(4-((ethylsulfonyl)glycyl)piperazin-1-yl)-7-oxo-[1,2,4]triazolo[1,5-a]pyrimidin-4(7H)-yl)acetamide] stands 100 to 1000 nM; under `CCOC(=O)N1CCN(c2c(CC)n(CC(=O)Nc3ccc(C(F)(F)F)cc3Cl)c3nc(C4=CCOCC4)nn3c2=O)CC1` [Example 40, Ethyl 4-(4-(2-((2-chloro-4-(trifluoromethyl)phenyl)amino)-2-oxoethyl)-2-(3,6-dihydro-2H-pyran-4-yl)-5-ethyl-7-oxo-4,7-dihydro-[1,2,4]triazolo[1,5-a]pyrimidin-6-yl)piperazine-1-carboxylate], over 1000 nM.
As to `CCc1c(N2CCN(C(=O)c3cn(C)c(=O)n(C)c3=O)CC2)c(=O)n2nc(C3=CCOCC3)nc2n1CC(=O)Nc1ccc(C(F)(F)F)cc1Cl` [Example 51, N-(2-Chloro-4-(trifluoromethyl)phenyl)-2-(2-(3,6-dihydro-2H-pyran-4-yl)-6-(4-(1,3-dimethyl-2,4-dioxo-1,2,3,4-tetrahydropyrimidine-5-carbonyl)piperazin-1-yl)-5-ethyl-7-oxo-[1,2,4]triazolo[1,5-a]pyrimidin-4(7H)-yl)acetamide], the 50% inhibitory concentration (IC50) was over 1000 nM.
`CCc1c(N2CCN(C(=O)c3cnc4ncnn4c3O)CC2)c(=O)n2nc(C3=CCOCC3)nc2n1CC(=O)Nc1ccc(C(F)(F)F)cc1Cl` [Example 52, N-(2-Chloro-4-(trifluoromethyl)phenyl)-2-(2-(3,6-dihydro-2H-pyran-4-yl)-5-ethyl-6-(4-(7-hydroxy-[1,2,4]triazolo[1,5-a]pyrimidine-6-carbonyl)piperazin-1-yl)-7-oxo-[1,2,4]triazolo[1,5-a]pyrimidin-4(7H)-yl)acetamide] came in with an IC50 of over 1000 nM.
As for `CCc1c(N2CCN(C(=O)CNC(=O)c3ccc(Cl)cc3Cl)CC2)c(=O)n2nc(C3=CCOCC3)nc2n1CC(=O)Nc1ccc(C(F)(F)F)cc1Cl` [Example 127, 2,4-Dichloro-N-(2-(4-(4-(2-((2-chloro-4-(trifluoromethyl)phenyl)amino)-2-oxoethyl)-2-(3,6-dihydro-2H-pyran-4-yl)-5-ethyl-7-oxo-4,7-dihydro-[1,2,4]triazolo[1,5-a]pyrimidin-6-yl)piperazin-1-yl)-2-oxoethyl)benzamide], the IC50 lay in the range of 100 to 1000 nM.
Take `CCc1c(N2CCN(C(=O)CN(C)C(=O)c3ccccc3)CC2)c(=O)n2nc(C3=CCOCC3)nc2n1CC(=O)Nc1ccc(C(F)(F)F)cc1Cl` [Example 135, N-(2-(4-(4-(2-((2-Chloro-4-(trifluoromethyl)phenyl)amino)-2-oxoethyl)-2-(3,6-dihydro-2H-pyran-4-yl)-5-ethyl-7-oxo-4,7-dihydro-[1,2,4]triazolo[1,5-a]pyrimidin-6-yl)piperazin-1-yl)-2-oxoethyl)-N-methylbenzamide]: the IC50 is under 100 nM.
Under `CCc1c(N2CCN(C(=O)C(C)(C)NC(=O)c3ccccc3)CC2)c(=O)n2nc(C3=CCOCC3)nc2n1CC(=O)Nc1ccc(C(F)(F)F)cc1Cl` [Example 137, N-(1-(4-(4-(2-((2-Chloro-4-(trifluoromethyl)phenyl)amino)-2-oxoethyl)-2-(3,6-dihydro-2H-pyran-4-yl)-5-ethyl-7-oxo-4,7-dihydro-[1,2,4]triazolo[1,5-a]pyrimidin-6-yl)piperazin-1-yl)-2-methyl-1-oxopropan-2-yl)benzamide] stands over 1000 nM; under `CCc1c(N2CCC3(CCN(C(=O)CNC(=O)c4ccccc4)C3)C2)c(=O)n2nc(C3=CCOCC3)nc2n1CC(=O)Nc1ccc(C(F)(F)F)cc1Cl` (stereo not shown) [Example 139, N-(2-(7-(4-(2-((2-Chloro-4-(trifluoromethyl)phenyl)amino)-2-oxoethyl)-2-(3,6-dihydro-2H-pyran-4-yl)-5-ethyl-7-oxo-4,7-dihydro-[1,2,4]triazolo[1,5-a]pyrimidin-6-yl)-2,7-diazaspiro[4.4]nonan-2-yl)-2-oxoethyl)benzamide], over 1000 nM.

Source of the values: patent publication US20260015358A1, “BICYCLIC DERIVATIVES, COMPOSITIONS AND USES THEREOF” (Danatlas Pharmaceuticals Co., Ltd., priority 2023, published 2026).
